The values below come from US20260183407A1, “DYRK/CLK PROTACS AND USES THEREOF” (Arizona Board of Regents on Behalf of the University of …, priority 2022, published 2026).

The target of assay [1] is T1, DYRK1A (Homo sapiens, UniProt Q13627).
T1 construct: purchased Eurofins; host or cells: E. coli BL21-derived (T7 phage display) or HEK-293
The assay is described as follows: KdELECT kinase binding assay (Eurofins), DYRK1A. The conditions noted are these: 11-point 3-fold dilution series, qPCR readout; read-out: Binding Affinity (Kd) DYRK1A. On the technique in general: Real-time PCR tracks product formation cycle by cycle.

Assay [2] deals with T2, DYRK1B (Homo sapiens, UniProt Q9Y463).
T2 construct: purchased Eurofins; host or cells: E. coli BL21-derived (T7 phage display) or HEK-293
T2 sequence (Q9Y463 whole entry, species assumed): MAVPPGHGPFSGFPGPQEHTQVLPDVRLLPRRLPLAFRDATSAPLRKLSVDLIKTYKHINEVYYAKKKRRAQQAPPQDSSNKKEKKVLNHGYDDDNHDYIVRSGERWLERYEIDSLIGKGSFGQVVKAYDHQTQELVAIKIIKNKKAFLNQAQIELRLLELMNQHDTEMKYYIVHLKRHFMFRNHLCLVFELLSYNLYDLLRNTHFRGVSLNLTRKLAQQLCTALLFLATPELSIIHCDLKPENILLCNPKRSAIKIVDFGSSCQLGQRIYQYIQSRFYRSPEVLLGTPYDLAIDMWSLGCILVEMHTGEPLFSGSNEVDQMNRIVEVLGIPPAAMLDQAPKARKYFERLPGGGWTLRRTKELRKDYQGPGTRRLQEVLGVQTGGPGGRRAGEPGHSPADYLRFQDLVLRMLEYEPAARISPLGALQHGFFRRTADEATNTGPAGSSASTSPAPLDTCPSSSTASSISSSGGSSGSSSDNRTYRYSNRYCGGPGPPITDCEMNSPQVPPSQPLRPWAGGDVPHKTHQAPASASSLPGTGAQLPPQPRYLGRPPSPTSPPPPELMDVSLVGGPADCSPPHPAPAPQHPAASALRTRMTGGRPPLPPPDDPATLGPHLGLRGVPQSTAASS
The assay is described as follows: HiBiT split luciferase assay of targeted degradation of DYRK1B in Flp-In T-REx 293 cells. Format: cell-based. The conditions noted are these: 300 nM compound, 24 h, HiBiT-tagged DYRK1B in Flp-In T-REx 293 cells, normalized to vehicle; read-out: Relative Degradation at 300 nM DYRK1B. The source says:
The Flp-In T-REx 293 Cell Line and the pcDNA5/FRT/TO vector (Invitrogen) were used to generate stable cell clones for tetracyclin-inducible expression of DYRK1A and DYRK1B. These cells contain a single stably integrated Flp recognition target (FRT) site, which allows for site-specific integration of the expression cassette by the Flp (Flippase) recombinase. DYRK1 constructs were designed to contain a C-terminal HiBiT tag for quantitative detection of HiBiT-tagged proteins in cellular lysates with the help a split luciferase assay (Nano-Glo HiBiT Lytic Detection System, Promega). To monitor the targeted degradation of DYRK1A or DYRK1B, cells were seeded in 96-well plates (10,000 cells/per well) and treated with doxycyclineinal concentration 2 μg/ml) to induce DYRK1 expression. Compounds with presumed PROTAC activity were administered 24 h after seeding. After further incubation for 24 h, cells were grossly and microscopically inspected for overt toxicity. Cells were lysed in 100 μL ice-cold passive lysis buffer (PLB, Promega) by orbital shaking (30 min on ice) before lysates were centrifuged in PCR tube (20 min 20,000 g, RT). A 10 μl aliquot of the supernatant was subjected to the HiBiT lytic assay. Luminescence was quantified in an Orion Microplate luminometer (Berthold Detection System, Germany). All compounds were tested in duplicate or triplicate wells (technical replicates) and at least two independent experiments. Relative degradation was calculated by normalization to vehicle-treated control samples.

Assay [3] concerns the target T1, DYRK1A. The assay is described as follows: HiBiT split luciferase assay of targeted degradation of DYRK1A in Flp-In T-REx 293 cells. In kind it is cell-based. As to conditions: 300 nM compound, 24 h, HiBiT-tagged DYRK1A in Flp-In T-REx 293 cells, normalized to vehicle; read-out: Relative Degradation at 300 nM DYRK1A. (HiBiT is a short tag that completes a luciferase, so light tracks the accessible tagged protein.)

The target in assay [4] is T2, DYRK1B. The assay is described as follows: KdELECT kinase binding assay (Eurofins), DYRK1B. As to conditions: 11-point 3-fold dilution series, qPCR readout; read-out: Binding Affinity (Kd) DYRK1B.

Where only a bound is given, the exact number is not on record here.

A word on the Kd: it is the free concentration of one partner at which half of the binding sites on the other are occupied at equilibrium, for simple one-to-one binding. `Cc1nc2ccc(-c3ccnc(N)c3)nc2n1-c1ccc(CN2CCN(CC#Cc3ccc(N4CCC(C(=O)N5CCC(n6cc(CNc7cccc8c7C(=O)N(C7CCC(=O)NC7=O)C8=O)cn6)CC5)CC4)nc3)CC2)cc1` (stereo not drawn) [Compound 25, 4-(((1-(1-(1-(5-(3-(4-(4-(5-(2-aminopyridin-4-yl)-2-methyl-3H-imidazo[4,5-b]pyridin-3-yl)benzyl)piperazin-1-yl)prop-1-yn-1-yl)pyridin-2-yl)piperidine-4-carbonyl)piperidin-4-yl)-1H-pyrazol-4-yl)methyl)amino)-2-(2,6-dioxopiperidin-3-yl)isoindoline-1,3-dione]: the Kd in assay [1] and in assay [4] was below 10 nM in each case. Further, the inhibition at 0.3 µM in assay [2] is 30 to 50%; in assay [3] it was above 60%.

`Cc1nc2ccc(-c3ccnc(N)c3)nc2n1-c1ccc(N2C[C@@H]3C[C@H]2CN3CC#Cc2ccc(N3CCC(C(=O)N4CCC(n5cc(CNc6cccc7c6C(=O)N(C6CCC(=O)NC6=O)C7=O)cn5)CC4)CC3)nc2)c(F)c1` (stereo partly drawn) [Compound 20, 4-(((1-(1-(1-(5-(3-((1S,4S)-5-(4-(5-(2-aminopyridin-4-yl)-2-methyl-3H-imidazo[4,5-b]pyridin-3-yl)-2-fluorophenyl)-2,5-diazabicyclo[2.2.1]heptan-2-yl)prop-1-yn-1-yl)pyridin-2-yl)piperidine-4-carbonyl)piperidin-4-yl)-1H-pyrazol-4-yl)methyl)amino)-2-(2,6-dioxopiperidin-3-yl)isoindoline-1,3-dione]: the Kd in assay [1] was below 10 nM; in assay [4], 10 to 100 nM. Also, the inhibition at 0.3 µM is below 30% in assay [2] and 30 to 60% in assay [3].

Take `Cc1ncsc1-c1ccc(CNC(=O)[C@@H]2C[C@@H](O)CN2C(=O)[C@@H](NC(=O)CCOCCOCCN2CCN(c3ccc(-n4c(C)nc5ccc(-c6ccnc(N)c6)nc54)cc3F)CC2)C(C)(C)C)cc1` [Compound 1, (2S,4R)-1-((S)-2-(3-(2-(2-(4-(4-(5-(2-aminopyridin-4-yl)-2-methyl-3H-imidazo[4,5-b]pyridin-3-yl)-2-fluorophenyl)piperazin-1-yl)ethoxy)ethoxy)propanamido)-3,3-dimethylbutanoyl)-4-hydroxy-N-(4-(4-methylthiazol-5-yl)benzyl)pyrrolidine-2-carboxamide]: the dissociation constant Kd in assay [1] and in assay [4] was below 10 nM in each case. In addition, the inhibition at 0.3 µM in assay [2] and in assay [3] was below 30% each time.

As for `Cc1nc2ccc(-c3ccnc(N)c3)nc2n1-c1ccc(N2CCN(CC#Cc3cncc(N4CCC(C(=O)N5CCC(n6cc(CNc7cccc8c7C(=O)N(C7CCC(=O)NC7=O)C8=O)cn6)CC5)CC4)n3)CC2)c(F)c1` (stereo not drawn) [Compound 32, 4-(((1-(1-(1-(6-(3-(4-(4-(5-(2-aminopyridin-4-yl)-2-methyl-3H-imidazo[4,5-b]pyridin-3-yl)-2-fluorophenyl)piperazin-1-yl)prop-1-yn-1-yl)pyrazin-2-yl)piperidine-4-carbonyl)piperidin-4-yl)-1H-pyrazol-4-yl)methyl)amino)-2-(2,6-dioxopiperidin-3-yl)isoindoline-1,3-dione], the Kd in assay [1] and in assay [4] was 10 to 100 nM in each case. Besides, the results for the inhibition at 0.3 µM in assay [2] and in assay [3] were above 50% and above 60%, respectively.

On to `Cc1nc2ccc(-c3ccnc(N)c3)nc2n1-c1ccc(N2CCN(CCC#Cc3ccc(N4CCC(C(=O)N5CCC(n6cc(CNc7cccc8c7C(=O)N(C7CCC(=O)NC7=O)C8=O)cn6)CC5)CC4)nc3)CC2)c(F)c1` (stereo not drawn) [Compound 19, 4-(((1-(1-(1-(5-(4-(4-(4-(5-(2-aminopyridin-4-yl)-2-methyl-3H-imidazo[4,5-b]pyridin-3-yl)-2-fluorophenyl)piperazin-1-yl)but-1-yn-1-yl)pyridin-2-yl)piperidine-4-carbonyl)piperidin-4-yl)-1H-pyrazol-4-yl)methyl)amino)-2-(2,6-dioxopiperidin-3-yl)isoindoline-1,3-dione], for which the Kd in assay [1] and in assay [4] was 10 to 100 nM each time. The inhibition at 0.3 µM in assay [2] was above 50%; in assay [3], above 60%.

`Cc1nc2ccc(-c3ccnc(N)c3)nc2n1-c1ccc(N2CCN(CCOCCOCCNc3cccc4c3C(=O)N(C3CCC(=O)NC3=O)C4=O)CC2)c(F)c1` (stereo not drawn) [Compound 5, 4-((2-(2-(2-(4-(4-(5-(2-aminopyridin-4-yl)-2-methyl-3H-imidazo[4,5-b]pyridin-3-yl)-2-fluorophenyl)piperazin-1-yl)ethoxy)ethoxy)ethyl)amino)-2-(2,6-dioxopiperidin-3-yl)isoindoline-1,3-dione]: the Kd in assay [1] and in assay [4] was below 10 nM in each case. In addition, the inhibition at 0.3 µM in assay [2] was below 30%; in assay [3], 30 to 60%.
